{"source": "patent US9540392B2", "about": "“Thienopyrimidines” (BAYER PHARMA AKTIENGESELLSCHAFT, priority 2012, dated 2017)", "key": {"[1]": {"biological_target": "T1, human full-length MKNK1 (Homo sapiens, UniProt Q9BUB5, T385D)", "T1 construct": "GST (N); purchased Carna Biosciences 02-145; host or cells: insect cells (baculovirus expression system)", "T1 sequence (Q9BUB5 1-424 isoform Q9BUB5-2 T344D)": "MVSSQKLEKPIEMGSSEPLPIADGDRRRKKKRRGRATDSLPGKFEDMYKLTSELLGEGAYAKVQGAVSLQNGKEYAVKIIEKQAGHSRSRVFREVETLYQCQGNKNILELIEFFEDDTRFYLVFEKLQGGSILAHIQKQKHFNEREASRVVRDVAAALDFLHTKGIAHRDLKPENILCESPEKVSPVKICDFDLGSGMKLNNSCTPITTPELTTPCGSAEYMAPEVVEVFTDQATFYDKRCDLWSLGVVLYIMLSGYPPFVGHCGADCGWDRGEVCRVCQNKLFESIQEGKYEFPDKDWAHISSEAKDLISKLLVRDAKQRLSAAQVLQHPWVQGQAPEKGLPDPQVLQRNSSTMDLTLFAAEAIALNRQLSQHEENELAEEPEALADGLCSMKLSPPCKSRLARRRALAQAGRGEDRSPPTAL", "assay": "MKNK1 kinase assay (TR-FRET)", "format": "biochemical", "details": "10 μM ATP", "excerpt": "MKNK1-inhibitory activity of compounds of the present invention was quantified employing the MKNK1 TR-FRET assay as described in the following paragraphs.\nA recombinant fusion protein of Glutathione-S-Transferase (GST, N-terminally) and human full-length MKNK1 (amino acids 1-424 and T344D of accession number BAA 19885.1), expressed in insect cells using baculovirus expression system and purified via glutathione sepharose affinity chromatography, was purchased from Carna Biosciences (product no 02-145) and used as enzyme. As substrate for the kinase reaction the biotinylated peptide biotin-Ahx-IKKRKLTRRKSLKG (C-terminus in amide form) was used which can be purchased e.g. form the company Biosyntan (Berlin-Buch, Germany).\nFor the assay 50 nL of a 100 fold concentrated solution of the test compound in DMSO was pipetted into a black low volume 384 well microtiter plate (Greiner Bio-One, Frickenhausen, Germany), 2 μL of a solution of MKNK1 in aqueous assay buffer [50 mM HEPES pH 7.5, 5 mM MgCl2, 1.0 mM dithiothreitol, 0.005% (v/v) Nonidet-P40 (Sigma)] was added and the mixture was incubated for 15 min at 22° C. to allow pre-binding of the test compounds to the enzyme before the start of the kinase reaction. Then the kinase reaction was started by the addition of 3 μL of a solution of adenosine-tri-phosphate (ATP, 16.7 μM=>final conc. in the 5 μL assay volume is 10 μM) and substrate (0.1 μM=>final conc. in the 5 μL assay volume is 0.06 μM) in assay buffer and the resulting mixture was incubated for a reaction time of 45 min at 22° C. The concentration of MKNK1 was adjusted depending of the activity of the enzyme lot and was chosen appropriate to have the assay in the linear range, typical concentrations were in the range of 0.05 μg/mL. The reaction was stopped by the addition of 5 μL of a solution of TR-FRET detection reagents (5 nM streptavidine-XL665 [Cisbio Bioassays, Codolet, France] and 1 nM anti-ribosomal protein […] (pSer236)-antibody from Invitrogen [#44921G] and 1 nM LANCE EU-W1024 Labeled ProteinG [Perkin-Elmer, product no. AD0071]) in an aqueous EDTA-solution (100 mM EDTA, 0.1% (w/v) bovine serum albumin in 50 mM HEPES pH 7.5).\nThe resulting mixture was incubated for 1 h at 22° C. to allow the formation of complex between the phosphorylated biotinylated peptide and the detection reagents. Subsequently the amount of phosphorylated substrate was evaluated by measurement of the resonance energy transfer from the Eu-chelate to the streptavidine-XL. Therefore, the fluorescence emissions at 620 nm and 665 nm after excitation at 350 nm were measured in a TR-FRET reader, e.g. a Rubystar (BMG Labtechnologies, Offenburg, Germany) or a Viewlux (Perkin-Elmer). […]"}, "[2]": {"biological_target": "T1, human full-length MKNK1", "assay": "MKNK1 kinase high ATP assay (TR-FRET)", "format": "biochemical", "details": "2 mM ATP, after preincubation with MKNK1; read-out: MKNK1 IC50 (MKNK1 high ATP)", "outline": "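Compound was preincubated 15 min at 22° C. with MKNK1 in 50 mM HEPES pH 7.5, 5 mM MgCl2, 1.0 mM DTT, then the reaction ran 30 min at 22° C. with 2 mM ATP and 0.06 μM biotinylated peptide (final).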"}, "[3]": {"system": "eIF4E Ser209 phosphorylation in A549 cells", "assay": "AlphaScreen SureFire eIF4E Ser209 phosphorylation assay in A549 cells with 20% FCS stimulation", "format": "cell-based", "details": "Homo sapiens, read-out: pEIF4e (IC50 of the EIF4e phosphorylation)", "excerpt": "The AlphaScreen SureFire eIF4E Ser209 phoshorylation assay is used to measure the phosphorylation of endogenous eIF4E in cellular lysates. The AlphaScreen SureFire technology allows the detection of phosphorylated proteins in cellular lysates. In this assay, sandwich antibody complexes, which are only formed in the presence of the analyte (p-eIF4E Ser209), are captured by AlphaScreen donor and acceptor beads, bringing them into close proximity. The excitation of the donor bead provokes the release of singlet oxygen molecules that triggers a cascade of energy transfer in the Acceptor beads, resulting in the emission of light at 520-620 nm.\nSurefire EIF4e Alphascreen in A549 cells with 20% FCS stimulation\nFor the assay the AlphaScreen SureFire p-eIF4E Ser209 10K Assay Kit and the AlphaScreen ProteinA Kit (for 10K assay points) both from Perkin Elmer were used. On day one 50.000 A549 cells were plated in a 96-well plate in 100 μL per well in growth medium (DMEM/Hams' F12 with stable Glutamin, 10% FCS) and incubated at 37° C. After attachment of the cells, medium was changed to starving medium (DMEM, 0.1% FCS, without Glucose, with Glutamin, supplemented with 5 g/L Maltose). On day two, test compounds were serially diluted in 50 μL starving medium with a final DMSO concentration of 1% and were added to A549 cells in test plates at a final concentration range from as high 10 μM to as low 10 nM depending on the activities of the tested compounds. Treated cells were incubated at 37° C. for 2 h. 37 ul FCS was added to the wells (=final FCS concentration 20%) for 20 min. Then medium was removed and cells were lysed by adding 50 μL lysis buffer. Plates were then agitated on a plate shaker for 10 min. After 10 min lysis time, 4 μL of the lysate is transferred to a 384 well plate (Proxiplate from Perkin Elmer) and 5 μL Reaction Buffer plus Activation Buffer mix containing AlphaScreen Acceptor beads was added. Plates were sealed with TopSeal-A adhesive film, gently agitated on a plate shaker for 2 hours at room temperature. Afterwards 2 μL Dilution buffer with AlphaScreen Donor beads were added under subdued light and plates were sealed again with TopSeal-A adhesive film and covered with foil. Incubation takes place for further 2 h gently agitation at room temperature. Plates were then measured in an EnVision reader (Perkin Elmer) with the AlphaScreen program. Each data point (compound dilution) was measured as triplicate.\nThe IC50 values were determined by means of a 4-parameter fit using the company's own software."}, "[4]": {"system": "221 kinases other than MKNK", "assay": "Kinase selectivity profiling (Merck Millipore KinaseProfiler)", "format": "biochemical", "details": "compound at 1 μM", "description": "Compounds of the present invention show a higher kinase inhibition selectivity than compounds disclosed in the patent applications WO 2010/023181 A1, WO 2011/104334 A1, WO 2011/104337 A1, WO 2011/104338 A1 and WO 2011/104340 A1 (Boehringer Ingelheim).\nThe compounds were tested at a concentration of 1 μM using 221 kinases different from MKNK. Kinase activity is expressed as a percentage of the mean kinase activity in the positive control samples. The positive control value is considered to be 100%, and all test samples are measured in relation to this value. For example, a result of 40% means that, in comparison to the positive control sample, 40% kinase activity remains in the presence of the test compound.\nTable 6 lists the fraction number of 221 investigated kinases with regard to their remaining activity in the presence of 1 μM of investigated compounds.\nThe compound described in example 10 is compared to the compound N-[3-(dimethylamino)propyl]-4-[(4-fluoro-2-isopropoxyphenyl)amino]-5-methylthieno[2,3-d]pyrimidine-6-carboxamide which served as reference compound (ref) and has been described in WO 2010/23181, WO 2011/104340 and US 2011/212103."}}}
{"smiles": "O=C(O)C1CCc2c(sc3ncnc(Nc4ccc5[nH]ncc5c4)c23)C1", "note": "(centres unmarked) [Example 2, 4-(1H-Indazol-5-ylamino)-5,6,7,8-tetrahydro[1]benzothieno[2,3-d]pyrimidine-7-carboxylic acid]", "values": [{"measurement": "IC50", "setting": "[1]", "result": 8, "unit": "nM"}, {"measurement": "IC50", "setting": "[2]", "result": 26, "unit": "nM"}]}
{"smiles": "CS(=O)(=O)CCCNC(=O)C1CCc2c(sc3ncnc(Nc4ccc5[nH]ncc5c4)c23)C1", "note": "(centres unmarked) [Example 4, 4-(1H-Indazol-5-ylamino)-N-[3-(methylsulfonyl)propyl]-5,6,7,8-tetrahydro[1]benzothieno[2,3-d]pyrimidine-7-carboxamide]", "values": [{"measurement": "IC50", "setting": "[1]", "result": 8, "unit": "nM"}, {"measurement": "IC50", "setting": "[2]", "result": 9, "unit": "nM"}]}
{"smiles": "O=C(NCc1cccc(F)c1)C1CCc2c(sc3ncnc(Nc4ccc5[nH]ncc5c4)c23)C1", "note": "(centres unmarked) [Example 18, N-(3-Fluorobenzyl)-4-(1H-indazol-5-ylamino)-5,6,7,8-tetrahydro[1]benzothieno-[2,3-d]pyrimidine-7-carboxamide]", "values": [{"measurement": "IC50", "setting": "[2]", "result": 2, "unit": "nM"}, {"measurement": "IC50", "setting": "[3]", "result": 412, "unit": "nM"}]}
{"smiles": "CN(C)C(=O)C1CCc2c(sc3ncnc(Nc4ccc5[nH]ncc5c4)c23)C1", "note": "(centres unmarked) [Example 10, 4-(1H-indazol-5-ylamino)-N,N-dimethyl-5,6,7,8-tetrahydro[1]benzothieno[2,3-d]pyrimidine-7-carboxamide]", "values": [{"measurement": "IC50", "setting": "[2]", "result": 12, "unit": "nM"}, {"measurement": "Fraction number of 221 kinases with remaining activity >30% and <80%", "setting": "[4]", "result": "4/221"}, {"measurement": "Fraction number of 221 kinases with remaining activity ≦30%", "setting": "[4]", "result": "0/221"}, {"measurement": "Fraction number of 221 kinases with remaining activity ≧80%", "setting": "[4]", "result": "217/221"}]}
{"smiles": "CCOC(=O)C1CCc2c(sc3ncnc(Nc4ccc5[nH]ncc5c4)c23)C1", "note": "(centres unmarked) [Example 1, Ethyl 4-(1H-indazol-5-ylamino)-5,6,7,8-tetrahydro[1]benzothieno[2,3-d]pyrimidine-7-carboxylate]", "values": [{"measurement": "IC50", "setting": "[1]", "result": 5, "unit": "nM"}, {"measurement": "IC50", "setting": "[2]", "result": 16, "unit": "nM"}]}
{"smiles": "COc1ccccc1NC(=O)C1CCc2c(sc3ncnc(Nc4ccc5[nH]ncc5c4)c23)C1", "note": "(centres unmarked) [Example 12, 4-(1H-indazol-5-ylamino)-N-(2-methoxyphenyl)-5,6,7,8-tetrahydro[1]benzothieno[2,3-d]pyrimidine-7-carboxamide]", "values": [{"measurement": "IC50", "setting": "[2]", "result": 8, "unit": "nM"}, {"measurement": "IC50", "setting": "[3]", "result": 252, "unit": "nM"}]}
{"smiles": "Cc1c(C(=O)NCCCN(C)C)sc2ncnc(Nc3ccc(F)cc3OC(C)C)c12", "note": "[Ref, N-[3-(dimethylamino)propyl]-4-[(4-fluoro-2-isopropoxyphenyl)amino]-5-methylthieno[2,3-d]pyrimidine-6-carboxamide, reference compound]", "values": [{"measurement": "IC50", "setting": "[2]", "result": 9.8, "unit": "nM"}, {"measurement": "Fraction number of 221 kinases with remaining activity >30% and <80%", "setting": "[4]", "result": "10/221"}, {"measurement": "Fraction number of 221 kinases with remaining activity ≦30%", "setting": "[4]", "result": "9/221"}, {"measurement": "Fraction number of 221 kinases with remaining activity ≧80%", "setting": "[4]", "result": "202/221"}, {"measurement": "IC50", "setting": "[3]", "result": 435, "unit": "nM"}]}
{"smiles": "CCOC(=O)C1CCc2c(sc3ncnc(Nc4cc5cn[nH]c5cc4OC)c23)C1", "note": "(centres unmarked) [Example 56, Ethyl 4-[(6-methoxy-1H-indazol-5-yl)amino]-5,6,7,8-tetrahydro[1]benzothieno[2,3-d]pyrimidine-7-carboxylate]", "values": [{"measurement": "IC50", "setting": "[1]", "result": 2, "unit": "nM"}, {"measurement": "IC50", "setting": "[2]", "result": 2, "unit": "nM"}, {"measurement": "IC50", "setting": "[3]", "result": 165, "unit": "nM"}]}
{"smiles": "Cc1ccccc1NC(=O)C1CCc2c(sc3ncnc(Nc4ccc5[nH]ncc5c4)c23)C1", "note": "(racemic) [Example 75, (RS)-4-(1H-Indazol-5-ylamino)-N-(2-methylphenyl)-5,6,7,8-tetrahydro[1]benzothieno[2,3-d]pyrimidine-7-carboxamide]", "values": [{"measurement": "IC50", "setting": "[2]", "result": 2.7, "unit": "nM"}, {"measurement": "IC50", "setting": "[3]", "result": 219, "unit": "nM"}]}
{"smiles": "COc1cc2[nH]ncc2cc1Nc1ncnc2sc3c(c12)CCC(C(=O)N(C)C)C3", "note": "(racemic) [Example 64, (RS)-4-[(6-Methoxy-1H-indazol-5-yl)amino]-N,N-dimethyl-5,6,7,8-tetrahydro[1]benzothieno[2,3-d]pyrimidine-7-carboxamide]", "values": [{"measurement": "IC50", "setting": "[2]", "result": 0.8, "unit": "nM"}, {"measurement": "IC50", "setting": "[3]", "result": 51, "unit": "nM"}]}
